Measurements from patent US12551532B2, “Long-acting amylin receptor agonists and uses thereof” (Eli Lilly and Company, priority 2021, dated 2026).
Starred links: 1 amine or outer side, 2 acyl side, 3 side chain; linkers in the order of their positions; H or OH if unused. Positions of bridges follow the written chain, without caps; N, C: chain ends. Non-standard residues stand in square brackets, D forms with d. Residues, ends and D or L forms follow the SMILES beside them. Groups on a side chain read outwards from the residue. *: point of attachment. C20 diacid = O=C(O)CCCCCCCCCCCCCCCCCCC(=O)*; γGlu = O=C(O)[C@H](CCC(=O)[*:2])N[*:1]; αMeF = C[C@](N)(Cc1ccccc1)C(=O)O; NMeD = CN[C@@H](CC(=O)O)C(=O)O; NMeN = CN[C@@H](CC(N)=O)C(=O)O; αMeL = CC(C)C[C@](C)(N)C(=O)O; Orn = NCCC[C@H](N)C(=O)O; CH2 = C([*:1])[*:2]

Experiments:
[1] = Pharmacokinetics in male cynomolgus monkeys; format: in vivo; conditions: single SC 20 nmol/kg, mean; for CL/F / Tmax / half-life: male, cynomolgus monkey, plasma; for CL/F / Tmax / AUCINF/D / Cmax/D: n = 3; for half-life: n = 3, read-out: T½ (converted)
Description: The pharmacokinetics of Compound II (SEQ ID NO:2), Compound IV (SEQ ID NO:4), Compound VI (SEQ ID NO:6), and Compound VIII (SEQ ID NO:8) are evaluated following a single subcutaneous administration of 20 nmol/kg to male cynomolgus monkeys. Blood samples are collected at 1, 3, 6, 12, 24, 48, 72, 120, 168, 240, 336, 408, 504 hours post SC dose. The resulting individual plasma concentrations are used to calculate pharmacokinetic parameters. Peptide plasma (K3EDTA) concentrations are determined using a qualified LC/MS method that measured the intact mass of the peptides. Each peptide and an analog as an internal standard are extracted from plasma. A high resolution Thermo Q-Exactive is used for LC/MS detection.

human dendritic cells = format: cell-based
Description: MAPPS profiles the MHC-II presented peptides on human dendritic cells treated with tested molecules. CD14+ cells, isolated from the PBMCs of normal human donors, are cultured and differentiated into immature DCs by incubation with IL-4 and GM-CSF. On day 4, culture media is replaced with fresh media containing tested molecules. On day 5, LPS is added to transform the cells into mature DCs. On day 6, cells are lysed in RIPA buffer with protease inhibitors. Immunoprecipitation of MHC-II complexes are performed using biotinylated anti-MHC-II antibody coupled to streptavidin beads. The bound complex is eluted and filtered. The isolated MHC-II peptides are analyzed by a mass spectrometer. Peptide identifications are generated by an internal proteomics pipeline using search algorithms with no enzyme and a bovine/human database with test sequences appended to the database. A KNIME workflow is used to process the identification files from the samples. Peptides identified from the test articles are aligned against the parent sequence of the test molecule. The output is used to determine the percentage of donors displaying MHC-II peptides from regions of the test molecule. Compound II, Compound IV, Compound VI, Compound VIII, a compound representative of U.S. Pat. No. 9,023,789 (hereinafter “Compound '789”), and Pramlintide are tested in the MAPPs assay.

human CT receptors = molecular target: T1, human CT receptors (Homo sapiens, UniProt P30988); assay: hCTR cAMP functional activity (HTRF); format: cell-based; conditions: ±SE; UMUC3 cells overexpressing hCTR; relative EC50
T1 construct: expressed in transfected cells
T1 sequence (P30988 25-474): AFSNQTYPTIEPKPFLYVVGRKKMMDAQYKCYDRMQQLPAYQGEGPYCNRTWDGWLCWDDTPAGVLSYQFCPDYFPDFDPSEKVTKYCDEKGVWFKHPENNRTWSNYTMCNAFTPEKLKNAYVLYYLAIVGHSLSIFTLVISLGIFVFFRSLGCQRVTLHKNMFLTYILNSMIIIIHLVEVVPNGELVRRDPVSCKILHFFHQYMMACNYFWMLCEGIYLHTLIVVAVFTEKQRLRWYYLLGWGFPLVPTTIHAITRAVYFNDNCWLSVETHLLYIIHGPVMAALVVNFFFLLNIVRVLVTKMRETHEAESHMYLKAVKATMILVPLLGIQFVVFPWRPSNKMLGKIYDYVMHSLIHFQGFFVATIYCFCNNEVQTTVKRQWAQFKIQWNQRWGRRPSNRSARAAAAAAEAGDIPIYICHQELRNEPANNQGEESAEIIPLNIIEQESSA
Description: (§1) The AMY1 and CT receptors are GPCRs that are functionally coupled to Gas proteins. […] In vitro activity of peptides is measured by the amount of cAMP formed in human AMY1R and CTR overexpressed cells.
Human CT receptors are stably expressed in human urinary bladder cells (UM-UC-3, or UMUC3) under control of a pcDNA expression vector. […] After 20 days under selection, the mRNA levels from different clones are measured to confirm the expression of hCTR. To determine the function of over-expressed hCTR cells, the intracellular cAMP levels in response to salmon calcitonin are measured and compared to the expression of hCTR mRNA in each clone.
(§2) hAMY1R cells are cultured in MEM 1× (Corning) supplemented with 10% FBS, 1% antibiotic/antimycotic solution, 1 mM sodium pyruvate, 1×MEM NEAA, 1× GlutaMAX-I, 200 μg/mL hygromycin B, and 0.4 μg/mL puromycin. The hCTR cells are cultured in the same medium lacking the puromycin. Cultured cells are grown to 70% confluency and then incubated overnight with fresh medium.
(§3) Peptides diluted in DMSO are added (200 nL/well) in a 1:3 dilution series using ECHO acoustic liquid handler (Beckman). Cultured cells are detached with TrypLE Express (Gibco), resuspended in assay buffer, and 10 μL containing 1200 cells/well (hCTR) or 1500 cells/well (hAMY1R) are dispensed into each well. The plates are incubated at room temperature for 1 hour.
(§4) The amount of intracellular cAMP is quantitated using HTRF technology (Homogeneous Time Resolved Fluorescence; Cisbio) as per vendor instructions. Briefly, 10 μL cAMP-d2 conjugate and 10 μL anti-cAMP-cryptate conjugate in lysis buffer are incubated with the treated cells at room temperature for 60 min. […] The raw data are converted to cAMP amount (pmol/well) using a cAMP standard curve generated for each experiment.

[2] = tested on: pre-existing antibodies (ADA) in normal human serum; assay: Pre-existing reactivity (ACE assay format); conditions: >50 donors; treatment-naive normal human serum
Description: This assay assesses the presence of pre-existing antibodies (ADA) against the tested molecules in treatment-naive normal human serum (NHS). Diluted NHS is incubated overnight on a Pierce Streptavidin plate coated with biotinylated tested molecules. On the following day, the captured binding proteins are acid eluted, hard-coated to a Mesoscale (MSD) plate, and detected with a combination of biotin-labeled molecule and ruthenium-labeled streptavidin. If anti-drug antibodies are present, they will bind the labeled drug and the resulting signal is referred to as Tier 1 signal (expressed as electrochemiluminescence). This signal is confirmed in Tier 2 by adding excess unlabeled tested molecule in the detection step, which results in the suppression of the Tier 1 signal. The presence of pre-existing anti-drug antibodies is expressed as magnitude of the 90th percentile of Tier 2 inhibition. The 90th percentile of Tier 2 inhibition, is a statistical tool to assess the magnitude of specificity of Tier 1 reactivity. This 90th percentile is used to rank molecules in terms of ADA risk.

hAMY1R = molecular target: T2, hAMY1R (Homo sapiens, UniProt O60894+P30988); assay: hAMY1R cAMP functional activity (HTRF); format: cell-based; conditions: ±SE; UMUC3 cells overexpressing hAMY1R; relative EC50
T2 construct: expressed in transfected cells
T2 sequence (O60894 27-148 partner, one chain of several): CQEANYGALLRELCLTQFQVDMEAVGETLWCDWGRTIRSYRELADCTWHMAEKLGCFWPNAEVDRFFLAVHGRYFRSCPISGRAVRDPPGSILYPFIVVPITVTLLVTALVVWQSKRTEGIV
Description: as §1
Human AMY1R stable cell lines are generated by further transfecting human RAMP1-pCMVpuroPB (T14213) into UMUC3 hCTR clone cells. After selection, the mRNA levels human RAMP1 from different clones are measured to confirm the expression of human AMY1R.
as §2, §3, §4

CC(C)C[C@H](NC(=O)[C@H](CCCN)NC(=O)CNC(=O)[C@@H](NC(=O)[C@H](C)NC(=O)[C@@H]1CSCSC[C@H](NC(=O)CC[C@H](N)C(=O)O)C(=O)N[C@@H](CC(N)=O)C(=O)N[C@@H]([C@@H](C)O)C(=O)N[C@@H](C)C(=O)N[C@@H]([C@@H](C)O)C(=O)N1)[C@@H](C)O)C(=O)N[C@@H](C)C(=O)N[C@@H](CCC(=O)O)C(=O)N[C@@](C)(Cc1ccccc1)C(=O)N[C@@H](CC(C)C)C(=O)N[C@H](C(=O)N[C@@H](CCCNC(=N)N)C(=O)N[C@@H](CO)C(=O)N[C@@H](CO)C(=O)N[C@@H](CC(N)=O)C(=O)N(C)[C@@H](CC(=O)O)C(=O)N[C@@H](Cc1ccccc1)C(=O)NCC(=O)N1CCC[C@H]1C(=O)N[C@@H](CCCCNC(=O)CC[C@H](NC(=O)CC[C@H](NC(=O)CCCCCCCCCCCCCCCCCCC(=O)O)C(=O)O)C(=O)O)C(=O)N[C@@H](CC(C)C)C(=O)N1CCC[C@H]1C(=O)N1CCC[C@H]1C(=O)N[C@H](C(=O)N[C@@H](CCC(=O)O)C(=O)N[C@H](C(=O)NCC(=O)N[C@@H](CO)C(=O)N[C@@H](CC(N)=O)C(=O)N[C@H](C(=O)N[C@@H](Cc1ccc(O)cc1)C(N)=O)[C@@H](C)O)C(C)C)[C@@H](C)O)C(C)C [Compound IV, γE-CNTATCATG-Orn-LAE-αMeF-LVRSSN-NMeD-FGPKLPPTEVGSNTY-NH2] (γGlu-CNTATCATG[Orn]LAE[αMeF]LVRSSN[NMeD]FGPK([γGlu-γGlu-C20 diacid])LPPTEVGSNTY-NH2; linker 1-6 via CH2)
CL/F [1]: 14.9 mL/day/kg | Tmax [1]: 48 ± 24 h | half-life [1]: 177 ± 13.5 h | AUCINF/D [1]: 1607 ± 104 hr * kg * nmol/L/nmol | Cmax/D [1]: 6.2 ± 1.0 kg * nmol/L/nmol | MAPPS Assay donors displayed peptides (human dendritic cells): no peptides | MAPPS Assay immunogenicity risk (human dendritic cells): Low Risk | peptides displayed on MHC-II complexes (human dendritic cells): no peptides displayed on MHC-II complexes | EC50 (human CT receptors): 6.14 ± 0.764 nM | Pre-existing Reactivity 90th percentile T2 inhibition [2]: 33.2% | EC50 (hAMY1R): 0.107 ± 0.016 nM

CC(C)C[C@H](NC(=O)[C@H](CCCN)NC(=O)CNC(=O)[C@@H](NC(=O)[C@H](C)NC(=O)[C@@H]1CSCSC[C@H](NC(=O)CC[C@H](N)C(=O)O)C(=O)N[C@@H](CC(N)=O)C(=O)N[C@@H]([C@@H](C)O)C(=O)N[C@@H](C)C(=O)N[C@@H]([C@@H](C)O)C(=O)N1)[C@@H](C)O)C(=O)N[C@@H](C)C(=O)N[C@@H](CCC(=O)O)C(=O)N[C@@](C)(Cc1ccccc1)C(=O)N[C@@H](CC(C)C)C(=O)N[C@H](C(=O)N[C@@H](CCCNC(=N)N)C(=O)N[C@@H](CO)C(=O)N[C@@H](CO)C(=O)N[C@@H](CC(N)=O)C(=O)N(C)[C@@H](CC(N)=O)C(=O)N[C@@H](Cc1ccccc1)C(=O)NCC(=O)N1CCC[C@H]1C(=O)N[C@@H](CCCCNC(=O)CC[C@H](NC(=O)CC[C@H](NC(=O)CCCCCCCCCCCCCCCCCCC(=O)O)C(=O)O)C(=O)O)C(=O)N[C@@H](CC(C)C)C(=O)N1CCC[C@H]1C(=O)N1CCC[C@H]1C(=O)N[C@H](C(=O)N[C@@H](CCC(=O)O)C(=O)N[C@H](C(=O)NCC(=O)N[C@@H](CO)C(=O)N[C@@H](CC(N)=O)C(=O)N[C@H](C(=O)N[C@@H](Cc1ccc(O)cc1)C(N)=O)[C@@H](C)O)C(C)C)[C@@H](C)O)C(C)C [Compound II] (γGlu-CNTATCATG[Orn]LAE[αMeF]LVRSSN[NMeN]FGPK([γGlu-γGlu-C20 diacid])LPPTEVGSNTY-NH2; linker 1-6 via CH2)
Tmax [1]: 64 ± 13.9 h | AUCINF/D [1]: 1752 ± 313 hr * kg * nmol/L/nmol | Cmax/D [1]: 6.7 ± 1.0 kg * nmol/L/nmol | MAPPS Assay donors displayed peptides (human dendritic cells): no peptides | MAPPS Assay immunogenicity risk (human dendritic cells): Low Risk | peptides displayed on MHC-II complexes (human dendritic cells): no peptides displayed on MHC-II complexes | EC50 (human CT receptors): 2.34 ± 0.272 nM | Pre-existing Reactivity 90th percentile T2 inhibition [2]: 48.8% | EC50 (hAMY1R): 0.075 ± 0.012 nM

CC[C@H](C)[C@H](NC(=O)[C@@H]1CCCN1C(=O)CNC(=O)[C@H](Cc1ccccc1)NC(=O)[C@H](CC(N)=O)NC(=O)[C@H](Cc1c[nH]cn1)NC(=O)[C@H](CO)NC(=O)[C@H](CO)NC(=O)[C@H](CCCNC(=N)N)NC(=O)[C@@H](NC(=O)[C@H](CC(C)C)NC(=O)[C@H](Cc1ccccc1)NC(=O)[C@H](CCC(=O)O)NC(=O)[C@H](C)NC(=O)[C@](C)(CC(C)C)NC(=O)[C@H](CCCN)NC(=O)CNC(=O)[C@@H](NC(=O)[C@H](C)NC(=O)[C@@H]1CSCSC[C@H](NC(=O)[C@@H](N)CCCCNC(=O)CC[C@H](NC(=O)CC[C@H](NC(=O)CCCCCCCCCCCCCCCCCCC(=O)O)C(=O)O)C(=O)O)C(=O)N[C@@H](CCC(=O)O)C(=O)N[C@@H]([C@@H](C)O)C(=O)N[C@@H](C)C(=O)N[C@@H]([C@@H](C)O)C(=O)N1)[C@@H](C)O)C(C)C)C(=O)N[C@@H](CC(C)C)C(=O)N1CCC[C@H]1C(=O)N1CCC[C@H]1C(=O)N[C@H](C(=O)N[C@@H](CCC(=O)O)C(=O)N[C@H](C(=O)NCC(=O)N[C@@H](CO)C(=O)N[C@@H](CC(N)=O)C(=O)N[C@H](C(=O)N[C@@H](Cc1ccc(O)cc1)C(N)=O)[C@@H](C)O)C(C)C)[C@@H](C)O [Compound VIII] (H-K([γGlu-γGlu-C20 diacid])CETATCATG[Orn][αMeL]AEFLVRSSHNFGPILPPTEVGSNTY-NH2; linker 2-7 via CH2)
CL/F [1]: 25.7 mL/day/kg | Tmax [1]: 28 ± 18.3 h | half-life [1]: 62 ± 4.7 h | AUCINF/D [1]: 942 ± 67 hr * kg * nmol/L/nmol | Cmax/D [1]: 7.2 ± 0.3 kg * nmol/L/nmol | MAPPS Assay donors displayed peptides (human dendritic cells): no peptides | MAPPS Assay immunogenicity risk (human dendritic cells): Low Risk | peptides displayed on MHC-II complexes (human dendritic cells): no peptides displayed on MHC-II complexes | EC50 (human CT receptors): 9.69 ± 2.01 nM | Pre-existing Reactivity 90th percentile T2 inhibition [2]: 51.4% | EC50 (hAMY1R): 0.107 ± 0.02 nM
